Tests used:
Plasmodium falciparum = experiment: Antiplasmodial assay (PicoGreen growth inhibition in infected human erythrocytes); format: cell-based; conditions: Erythrocyte, in vitro, W2 and 3D7 strains cultured, strain of the values not stated, read-out: Plasmodium falciparum IC50
Method: Activity against the causative agent of malaria was performed by culturing human erythrocytes and infecting them with P. falciparum, as described by Trager and Jensen[36]. Briefly, the W2 (Chloroquine resistant) and 3D7 (Chloroquine sensitive) strains of P. falciparum were cultured in RPMI 1640 medium (Sigma-Aldrich, USA) supplemented with 10% human serum (from O+ blood) at a hematocrit of 2% erythrocytes (O+) at 37 °C in a gas mixture of 5% CO2, 5% O2, and 90% N2. Parasites were synchronized by a temperature cycling technique as described by Almanza et al.[37]

Leishmania donovani = experiment: Antileishmanial assay (PicoGreen); format: cell-based; conditions: in vitro, read-out: Leishmania donovani IC50
Method: The anti-leishmania activity was evaluated following the protocol described by Calderon et al.[39], using the fluorescent DNA intercalator PicoGreen (Invitrogen, USA). The species responsible for visceral leishmaniasis, L. donovani, was used for the assays.

Trypanosoma cruzi = experiment: Antitrypanosomal assay (beta-galactosidase reporter, intracellular amastigotes in Vero cells); format: cell-based; conditions: Tulahuen clone C4, intracellular amastigotes in Vero cells, 120 h; for IC50: Trypanosoma cruzi, read-out: Trypanosoma cruzi IC50; on all read-outs here: key: I: Inactive
Method: Briefly, the expression of the reporter gene for beta-galactosidase (β-Gal) in the Tulahuen clone C4 of T. cruzi is assessed by colorimetry at 570 nm, which correlates with the parasite growth. Assays were performed on the intracellular amastigote form of the parasite infecting African green monkey kidney (Vero) cells, incubated for 120 h at 37 °C with 5% CO2.

[1] = Cytotoxicity SRB assay, HCT-116; conditions: human
Method: (§1) All of the compounds were also evaluated for their cytotoxic properties against six human cancer cell lines (lung carcinoma epithelian (A549), colon carcinoma (HCT-116), pancreatic carcinoma (BXPC-3), breast cancer (MCF-7), cervical epithelium (HeLa), and erythroleukemic (K562)) and a human umbilical vein endothelial cell (HUVEC) line (Table 2).
(§2) The cytotoxicity against HCT-116, BXPC-3, HeLa, MCF-7, A-549, and HUVEC cell lines was evaluated using the SRB method. The cytotoxicity against K562 and Vero cell lines was evaluated using the MTT method. Adriamycin was used as a positive control. All cells were cultivated in T-75 flasks containing 10% Fetal Bovine Serum (FBS), Dulbeco’s Modified Eagle Medium (DMEM) with 2 mM L-glutamine, and 1% penicillin-streptomycin at 37 °C in a humidified atmosphere with 5% CO2. For SRB assay, cells in their log phase of growth were seeded into 96 well micro plates (4 × 10^4 cells per well) and followed by treating with test samples at 10 μM or DMSO. After incubation at 37 °C for 72 h, the cells were fixed with the cold 20% (w/v) TCA for 2 h and stained with Sulforhodamine B (SRB) dye for 0.5 h. The protein-bound dye is dissolved in Tris base solution for OD determination at 540 nm on an ELISA Plate Reader. For MTT assay, cells (5 × 10^3 cells per well) were plated in 96 well micro plates. After cell attachment overnight, new medium containing test compounds or DMSO was added. The plate was incubated for 48 h at 37 °C and incubated with 3-(4,5-dimethylthiazol-2-yl)-2,5-diphenyltetrazolium bromide (MTT) for additional 2–4 hours. The assay plate was then read at 490 nm on an ELISA Plate Reader. The data were obtained from experiments carried out in triplicate.

[2] = Cytotoxicity SRB assay, BXPC-3; conditions: human
Method: as §1, §2

[3] = Cytotoxicity SRB assay, HeLa; conditions: human
Method: as §1, §2

[4] = Cytotoxicity SRB assay, MCF-7; conditions: human
Method: as §1, §2

[5] = Cytotoxicity SRB assay, A-549; conditions: human
Method: as §1, §2

[6] = Cytotoxicity MTT assay, K562; conditions: human
Method: as §1, §2

[7] = Cytotoxicity against the panel of six human cancer cell lines and HUVEC
Method: as §1, §2

[8] = Chemical stability / interconversion in solvents; format: physicochemical; conditions: MeOH, EtOH, MeOH-d4 (except H2O), stationary state, within a week
Method: Compounds 1–6 and 11–27 were designed and synthesized through one or two-step semisynthetic reaction with high yields ranging from 65–95% from 7 and 8 (Fig. 1). The structures of new derivatives 12, 14–19, 21–22, 24, and 27 were identified by extensive spectroscopic methods including HRESIMS, ^1H NMR, and ^13C NMR. Compound 1 was prepared in yield of 95% through one-step acetonide reaction from 8. Other acetonide derivatives (11, 17, 18, 20, 23, 25, and 26) were also prepared with the same yields. Chlorination of compound 8 with sulfuryl chloride[33] followed by selective reduction with 10% Pd-C under H2 atmosphere led to the natural compound 2 (68%, yield). Acylation reaction was carried out by reaction of anhydride with the corresponding materials (1–3, and 6–8) in high yields (85–95%). In order to prepare 6, oxidation of the allyl alcohol 8 was examined under various oxidation conditions (PCC, PDC, MnO2, DMP, and IBX). However, only DMP and IBX enabled the selective oxidation of the allyl alcohol to give 6 in 65% and 35% yields, respectively (Fig. 3). […] Compounds 3–6 are diastereomers differing from each other by the absolute configurations of the 4′, 5′-diol chiral centers. The proportions of compounds 3–6 were in dynamic equilibrium, and the final ratios of 3–6 were approximately 8: 2: 5: 6 (Fig. 4). […]

[9] = Toxicity against Vero cells (MTT); format: cell-based, African green monkey; conditions: African green monkey, MTT, 48 h
Method: (§3) It should be emphasized that toxicity is a major concern of drug discovery and development. The above active compounds were evaluated for in vitro toxicity against a mammalian kidney cell line (Vero). The selectivity index (SI) was used as the evaluation parameter of drug potential of the test samples by comparing the toxicity on the Vero cell line (CC50) and the selective inhibitory effect on P. falciparum, L. donovani or T. cruzi (IC50) calculated here as CC50/IC50.
(§4) Adriamycin was used as a positive control.

[10] = Cytotoxicity SRB assay, HUVEC; conditions: human
Method: as §1, §2

Vero cells = experiment: Toxicity against Vero cells (MTT); format: cell-based, African green monkey; conditions: in vitro toxicity against mammalian kidney cell line (Vero)
Method: as §3, §4

P. falciparum lines 3D7 = tested on: P. falciparum lines 3D7; parameters: method as in PMID 20429578, PMID 20429578; conditions: line 3D7; read-out: IC50 against P. falciparum line 3D7; cited from earlier work
P. falciparum lines Dd2 = conditions: line Dd2; read-out: IC50 against P. falciparum line Dd2; cited from earlier work
[11] = BXPC-3 pancreatic carcinoma cells
[12] = Vero cells (mammalian kidney cell line)
[13] = HUVEC (umbilical vein endothelial cells)

Structure (SMILES)	IC50 (Plasmodium falciparum) [µM]	IC50 (Leishmania donovani) [µM]	Trypanosoma cruzi IC50 (Trypanosoma cruzi)	IC50 at 72 h ([1]; HCT-116 colon carcinoma cells) [µM]	IC50 at 72 h [2, 11] [µM]	IC50 at 72 h ([3]; HeLa cervical epithelium cells) [µM]	IC50 at 72 h ([4]; MCF-7 breast cancer cells) [µM]	IC50 at 72 h ([5]; A-549 lung carcinoma cells) [µM]	IC50 at 48 h ([6]; K562 erythroleukemic cells) [µM]	IC50 [7] [µM]	CC50 at 48 h [9, 12] [µM]	IC50 at 72 h [10, 13] [µM]	Toxicity (in words) (Vero cells)	further results
COc1cc(O)c2c(c1)/C=C/C[C@@H](O)[C@H](O)C(=O)/C=C/C[C@H](C)OC2=O [Compound 3]	> 30.7	9.11	I	> 10	> 10	7.18	> 10	> 10	> 10	< 10	–	–	–	Stability in protic solvents [8]: quite stable
COc1cc(O)c2c(c1)/C=C/C[C@H](O)[C@H](O)C(=O)/C=C/C[C@H](C)OC2=O [Compound 6]	14.9	1.93	–	> 10	8.47	> 10	> 10	> 10	> 10	< 10	3.2	8.59	–	Stability in protic solvents [8]: subtle chemical conversion of 6 to 3–5
COc1cc2c(c(OC(C)=O)c1)C(=O)O[C@@H](C)C/C=C/[C@@H]1OC(C)(C)O[C@H]1[C@@H](OC(C)=O)C/C=C/2 [Compound 11]	1.84	9.22	–	> 10	> 10	> 10	> 10	> 10	> 10	–	339	> 10	non-toxic	IC50 (Trypanosoma cruzi): 11.9 µM
COc1cc(O)c2c(c1)/C=C/C[C@H](OC(C)=O)[C@H](OC(C)=O)[C@@H](OC(C)=O)/C=C/C[C@H](C)OC2=O [Compound 12]	8.36	15.7	–	> 10	> 10	> 10	> 10	> 10	> 10	–	1520	> 10	non-toxic	IC50 (Trypanosoma cruzi): 17.2 µM
COc1cc2c(c(OC(C)=O)c1)C(=O)O[C@@H](C)C/C=C/[C@H](OC(C)=O)[C@@H](OC(C)=O)[C@@H](OC(C)=O)C/C=C/2 [Compound 13]	6.95	> 15.7	I	> 10	> 10	> 10	> 10	> 10	> 10	–	427	> 10	non-toxic	–
COc1cc2c(c(OC(=O)c3ccco3)c1)C(=O)O[C@@H](C)C/C=C/[C@H](OC(=O)c1ccco1)[C@@H](OC(=O)c1ccco1)[C@@H](OC(=O)c1ccco1)C/C=C/2 [Compound 15]	22.2	> 15.7	I	–	–	–	–	–	–	–	1570	–	non-toxic	–
COc1cc(O)c2c(c1)/C=C/C[C@@H]1OC(C)(C)O[C@@H]1C(=O)/C=C/C[C@H](C)OC2=O [Compound 20]	> 30.7	6.46	–	–	–	–	–	–	–	< 10	–	–	–	CC50 at 48 h [9]: < 1 µM; IC50 at 72 h [1]: > 10 µM; IC50 at 72 h [2]: > 10 µM; IC50 at 72 h [3]: 7.21 µM; IC50 at 72 h [4]: > 10 µM; IC50 at 72 h [5]: > 10 µM; IC50 at 48 h [6]: > 10 µM; IC50 at 72 h [10]: 9.78 µM
COc1cc2c(c(OC(C)=O)c1)C(=O)O[C@@H](C)C/C=C/C(=O)[C@@H](OC(C)=O)[C@@H](OC(C)=O)C/C=C/2 [Compound 21]	> 30.7	3.69	–	> 10	> 10	6.95	> 10	> 10	> 10	< 10	5.8	4.52	–	–
COc1cc(O)c2c(c1)C=CCC1OC(C)(C)OC1C(=O)C=CCC(C)OC2=O (stereo not drawn) [Compound 26]	8.95	1.24	–	–	–	–	–	–	–	< 10	–	–	–	CC50 at 48 h [9]: < 1 µM; IC50 at 72 h [1]: 9.16 µM; IC50 at 72 h [2]: 7.22 µM; IC50 at 72 h [3]: 4.02 µM; IC50 at 72 h [4]: > 10 µM; IC50 at 72 h [5]: > 10 µM; IC50 at 48 h [6]: > 10 µM; IC50 at 72 h [10]: 4.81 µM
COc1cc(O)c2c(c1)/C=C/C[C@H](O)[C@H](O)[C@@H](O)CCC[C@H](C)OC2=O [Paecilomycin E, paecilomycin E]	–	–	–	–	–	–	–	–	–	–	–	–	–	IC50 (P. falciparum lines 3D7): 0.02 µM; IC50 (P. falciparum lines Dd2): 8.8 µM

Reference: article PMC5603512, “Discovery, Semisynthesis, Antiparasitic and Cytotoxic Evaluation of 14-Membered Resorcylic Acid Lactones and Their Derivatives” (Scientific Reports, 2017)
